Experimental data published in publication PMC5575463, “The amino‐terminal tail of Hxt11 confers membrane stability to the Hxt2 sugar transporter and improves xylose fermentation in the presence of acetic acid” (Biotechnology and Bioengineering, 2017).
Where two headings read alike, the source gives them in different places.

Legend:
Chimeric Hxt11/2 [1] = tested on: T1, Chimeric Hxt11/2; assay: […] sugar uptake by yeast cells, filtration; format: cell-based, Saccharomyces cerevisiae; settings: labelled compound, mineral medium, strain DS68625
T1 construct: single-chain fusion: Hxt11 residues 1-54 replace Hxt2 residues 1-49, rest is Hxt2; untagged, pRS313-P7T7; expressed in S. cerevisiae DS68625 (hxt1-7, gal2 deleted)

Chimeric Hxt11/2 [2] = tested on: T1, Chimeric Hxt11/2; assay: […] sugar uptake by yeast cells, filtration; format: cell-based, Saccharomyces cerevisiae; settings: labelled compound; 0.5-500 mM xylose, 1 min uptake, mineral medium, strain DS68625; Hxt2 numbering; read-out: K m (mM) / Xylose

| SMILES | Km (Chimeric Hxt11/2 [1]; 0.1-500 mM glucose, 15 s uptake, read-out: K m (mM) / Glucose) [mM] | Km (Chimeric Hxt11/2 [1]; 0.5-500 mM xylose, 1 min uptake, read-out: K m (mM) / Xylose) [mM] | Km (Chimeric Hxt11/2 [2]) [mM] |
| --- | --- | --- | --- |
| OC[C@H]1OC(O)[C@H](O)[C@@H](O)[C@@H]1O (stereo partly drawn) [D-glucose] | 17.4 ± 3.8 | – | – |
| OC1OC[C@@H](O)[C@H](O)[C@H]1O (stereo partly drawn) [D-xylose] | – | 69 ± 9.1 | 57.3 ± 5.2 |
